Values after ≈ are worked out from the molar mass of the structure shown. Where two headings read alike, the source gives them in different places. Where a SMILES comes first, the peptide text is derived from it. The star is where a group is joined. X2 = CCCCN(CCc1c2c(nc3ccccc13)-c1cc3c(c(=O)n1C2)COC(=O)[C@]3(O)CC)*; X4 = CCCN(CCc1c2c(nc3ccccc13)-c1cc3c(c(=O)n1C2)COC(=O)[C@]3(O)CC)*; X5 = CC[C@@]1(O)C(=O)OCc2c1cc1n(c2=O)Cc2c-1nc1ccccc1c2CCN(CC(C)C)*; Propanoyl(3-maleimido) = O=C1C=CC(=O)N1CCC(=O)*; PEG6 = NCCOCCOCCOCCOCCOCCOCCC(=O)O
Legend:
A2780 (ovarian cancer) = test: cells; type: cell-based; details: for IC50 Ovarian cancer tissue (A2780): CCK8, 48 h, Table 6
Method in brief: (§1)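 Cells seeded at 5,000 cells/well in RPMI1640 or DMEM high-glucose with 10% FBS and 1 mM sodium pyruvate, exposed to graded drug concentrations for 48 h at 37° C., 5% CO2; 0.1% DMSO controls. CCK8 added for ~2 h, absorbance 450 nm; survival rates and IC50 calculated.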

[1] = tested on: A549 (non-small cell lung cancer); test: cells; type: cell-based; details: for IC50 Non-small cell lung cancer tissue (A549): CCK8, 48 h, Table 6
Method in brief: as §1

SJSA-1 (sarcoma tissue) = test: cells; type: cell-based; details: for IC50 Sarcoma tissue (SJSA-1): CCK8, 48 h, Table 6
Method in brief: as §1

[2] = tested on: sarcoma SJSA-1 tumor model
Method in brief: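 SJSA-1 cells (2×10^7, DMEM/10% FBS, under 15 passages) implanted subcutaneously in right chest of female BALB/c nude mice, 6-8 weeks old. At ≥100 mm^3, randomized three per group; dosing once weekly for three weeks, saline as control, day 1 = first treatment.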

[3] = tested on: colo320 colorectal cancer tumor model
Method in brief: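 Female BALB/c nude mice, 6–8 weeks old, received 7.5×10^6 colo320 cells subcutaneously in the right chest. Once tumors reached at least 120 mm^3 they were randomized three per group. Treatment with test agents or saline control was given once weekly for four weeks.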

[4] = tested on: A2780 ovarian cancer tumor model; test: Efficacy in animal model of A2780 ovarian cancer, 30 mg/kg once a week for two weeks (Example 41); type: in vivo, BALB/c mice
Method: Test objective: To further compare the antitumor efficacy of different polypeptide Linkers in an animal tumor model of A2780 ovarian cancer.
Test drug: Polypeptide conjugate and normal saline control group.
8×10^6 corresponding cells were injected into right axillas of nude mice subcutaneously. […] The negative control group was administered normal saline. Administration was performed once a week for two weeks.

[5] = Tumor homogenate activation efficiency, ovarian cancer tissue (Examples 28, 37); type: in vitro ADME; details: pH 5.0, 37° C., 2 h
Method in brief: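 Activation is reported as the fraction of free Belotecan peak area among all Belotecan-bearing peaks by HPLC. The conjugate (1 mg/ml) reacts with 100 μg homogenate for 2 h at 37° C in MES buffer, pH 5.0.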

[6] = Homogenate activation efficiency, heart tissue (Examples 28, 37); type: in vitro ADME; details: pH 5.0, 37° C., 2 h
[7] = tested on: colo320 (colorectal cancer tissue); test: cells; type: cell-based; details: CCK8, 48 h; Table 6
Method in brief: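 Colo320 cells, 5,000 per well, exposed to drug concentration series for 48 h at 37 °C, 5% CO2 (0.1% DMSO controls). Viability by CCK8, absorbance at 450 nm after about 2 h. Survival rates and IC50 calculated.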

[8] = 15 mg/kg once a week for three weeks, Table 2
[9] = 45 mg/kg once a week for three weeks, Table 2
[10] = 15 mg/kg once a week for four weeks, Table 3
[11] = 45 mg/kg once a week for four weeks, Table 3
[12] = Table 14 (Example 43), dose 45 mg/kg, once a week for four weeks, BALB/c mice
[13] = 15 mg/kg once a week for three weeks, Table 7
[14] = 45 mg/kg once a week for three weeks, Table 7
[15] = 15 mg/kg once a week for four weeks, Table 8
[16] = 45 mg/kg once a week for four weeks, Table 8

| SMILES | A2780 (ovarian cancer) mean tumor volume (mm^3) Day 1 [4] [mm^3] | A2780 (ovarian cancer) mean tumor volume (mm^3) Day 4 [4] [mm^3] | A2780 (ovarian cancer) mean tumor volume (mm^3) Day 7 [4] [mm^3] | A2780 (ovarian cancer) mean tumor volume (mm^3) Day 10 [4] [mm^3] | A2780 (ovarian cancer) mean tumor volume (mm^3) Day 14 [4] [mm^3] | Growth rate (%) of A2780 (ovarian cancer) on Day 14 [4] [%] | Mouse weight (%) on Day 14 [4] | IC50 Ovarian cancer tissue (A2780) (A2780 (ovarian cancer)) [µg/mL] | IC50 Non-small cell lung cancer tissue (A549) [1] [µg/mL] | IC50 Sarcoma tissue (SJSA-1) (SJSA-1 (sarcoma tissue)) [µg/mL] | IC50 Colorectal cancer tissue (colo320) [7] [µg/mL] | Mouse weight (%) [2, 13] | SJSA-1 (sarcoma tissue) growth rate (%) [2, 13] [%] | SJSA-1 (sarcoma tissue) mean tumor volume (mm^3) [2, 13] [mm^3] | Mouse weight (%) [2, 14] | SJSA-1 (sarcoma tissue) growth rate (%) [2, 14] [%] | SJSA-1 (sarcoma tissue) mean tumor volume (mm^3) [2, 14] [mm^3] | Mouse weight (%) [3, 15] | colo320 (colorectal cancer cell) growth rate (%) [3, 15] [%] | colo320 (colorectal cancer cell) mean tumor volume (mm^3) [3, 15] [mm^3] | other results |
| --- | --- | --- | --- | --- | --- | --- | --- | --- | --- | --- | --- | --- | --- | --- | --- | --- | --- | --- | --- | --- | --- |
| CC[C@@]1(O)C(=O)OCC2=C1C=C1c3nc4ccccc4c(CCN(C(=O)OCc4ccc(NC(=O)[C@H](CC(N)=O)NC(=O)[C@H](C)NC(=O)[C@H](C)NC(=O)CCOCCOCCOCCOCCOCCOCCNC(=O)CCN5C(=O)C=CC5=O)cc4)C(C)C)c3CN1C2 [MI-6PEG-AAN-PAB-Belotecan] | 151.03 | 282.87 | 579.35 | 837.75 | 1135.00 | 751.51 | +1.2% | – | – | – | – | – | – | – | – | – | – | – | – | – | IC50 A2780 (ovarian cancer) (A2780 (ovarian cancer); 48 h): 0.34 µg/mL (≈ 0.259 µM); IC50 A549 (non-small cell lung cancer) ([1]; 48 h): 0.39 µg/mL (≈ 0.297 µM); IC50 SJSA-1 (sarcoma tissue) (SJSA-1 (sarcoma tissue); 48 h): 0.26 µg/mL (≈ 0.198 µM); Mouse weight (%) [2, 8]: +6%; SJSA-1 (sarcoma tissue) mean tumor volume (mm^3) [2, 8]: 1357 mm^3; SJSA-1 (sarcoma) Growth rate (%) [2, 8]: 1174.19%; Mouse weight (%) [2, 9]: −5%; SJSA-1 (sarcoma tissue) mean tumor volume (mm^3) [2, 9]: 873.5 mm^3; SJSA-1 (sarcoma) Growth rate (%) [2, 9]: 753.02%; Mouse weight (%) [3, 10]: +29%; colo320 (colorectal cancer cell) growth rate (%) [3, 10]: 1105.40%; colo320 (colorectal cancer cell) mean tumor volume (mm^3) [3, 10]: 1224.3 mm^3; Mouse weight (%) [3, 11]: +6%; colo320 (colorectal cancer cell) growth rate (%) [3, 11]: 573.97%; colo320 (colorectal cancer cell) mean tumor volume (mm^3) [3, 11]: 635.7 mm^3; Mouse weight (%) [3, 12]: +6%; colo320 (colorectal cancer cell) growth rate (%) [3, 12]: 573.97%; colo320 (colorectal cancer cell) mean tumor volume (mm^3) [3, 12]: 635.7 mm^3; Percentage of release efficiency (%) Ovarian cancer tissue (A2780) ([5]; Table 5): 75.3%; Percentage of release efficiency (%) Heart tissue ([6]; Table 5): 2.7% |
| CCCN(CCc1c2c(nc3ccccc13)-c1cc3c(c(=O)n1C2)COC(=O)[C@]3(O)CC)C(=O)[C@H](CC(C)C)NC(=O)[C@H](CC(N)=O)NC(=O)[C@H](C)NC(=O)[C@H](C)NC(=O)CCOCCOCCOCCOCCOCCOCCNC(=O)CCN1C(=O)C=CC1=O [MI-6PEG-AANL-D3] ({Propanoyl(3-maleimido)-PEG6}-AANL-X4) | 134.07 | 387.76 | 768.59 | 998.38 | 1508.23 | 1124.96 | +12.2% | 1.15 (≈ 0.892 µM) | 1.87 (≈ 1.45 µM) | 1.52 (≈ 1.18 µM) | 3.28 (≈ 2.54 µM) | +21% | 1207.54 | 1521.5 | +16% | 941.15 | 1205.8 | +18% | 1088.75 | 1279.8 | Mouse weight (%) [3, 16]: +18%; colo320 (colorectal cancer cell) growth rate (%) [3, 16]: 641.35%; colo320 (colorectal cancer cell) mean tumor volume (mm^3) [3, 16]: 753.9 mm^3; Percentage of release efficiency (%) Ovarian cancer tissue (A2780) ([5]; Table 10): 69.5%; Percentage of release efficiency (%) Heart tissue ([6]; Table 10): 3.9% |
| CCCCN(CCc1c2c(nc3ccccc13)-c1cc3c(c(=O)n1C2)COC(=O)[C@]3(O)CC)C(=O)[C@H](CC(C)C)NC(=O)[C@H](CC(N)=O)NC(=O)[C@H](C)NC(=O)[C@H](C)NC(=O)CCOCCOCCOCCOCCOCCOCCNC(=O)CCN1C(=O)C=CC1=O [MI-6PEG-AANL-D4] ({Propanoyl(3-maleimido)-PEG6}-AANL-X2) | 133.89 | 309.51 | 703.24 | 894.45 | 1345.03 | 1004.58 | +14.5% | 2.47 (≈ 1.89 µM) | 3.72 (≈ 2.85 µM) | 2.94 (≈ 2.26 µM) | 5.40 (≈ 4.14 µM) | +19% | 1031.84 | 1289.8 | +19% | 924.41 | 1149.5 | +17% | 1081.25 | 1271.1 | Mouse weight (%) [3, 16]: +18%; colo320 (colorectal cancer cell) growth rate (%) [3, 16]: 832.33%; colo320 (colorectal cancer cell) mean tumor volume (mm^3) [3, 16]: 978.4 mm^3; Mouse weight (%) [3, 12]: +18%; colo320 (colorectal cancer cell) growth rate (%) [3, 12]: 832.33%; colo320 (colorectal cancer cell) mean tumor volume (mm^3) [3, 12]: 978.4 mm^3; Percentage of release efficiency (%) Ovarian cancer tissue (A2780) ([5]; Table 10): 66.7%; Percentage of release efficiency (%) Heart tissue ([6]; Table 10): 4% |
| CC[C@@]1(O)C(=O)OCc2c1cc1n(c2=O)Cc2c-1nc1ccccc1c2CCN(CC(C)C)C(=O)[C@H](CC(C)C)NC(=O)[C@H](CC(N)=O)NC(=O)[C@H](C)NC(=O)[C@H](C)NC(=O)CCOCCOCCOCCOCCOCCOCCNC(=O)CCN1C(=O)C=CC1=O [MI-6PEG-AANL-D5] ({Propanoyl(3-maleimido)-PEG6}-AANL-X5) | 134.01 | 254.52 | 612.55 | 730.28 | 1116.71 | 833.30 | +7.9% | 1.13 (≈ 0.867 µM) | 1.34 (≈ 1.03 µM) | 1.58 (≈ 1.21 µM) | 2.42 (≈ 1.86 µM) | +18% | 1069.02 | 1304.2 | +17% | 933.13 | 1165.2 | +19% | 1027.54 | 1257.2 | Mouse weight (%) [3, 16]: +19%; colo320 (colorectal cancer cell) growth rate (%) [3, 16]: 643.05%; colo320 (colorectal cancer cell) mean tumor volume (mm^3) [3, 16]: 755.9 mm^3; Percentage of release efficiency (%) Ovarian cancer tissue (A2780) ([5]; Table 10): 74.3%; Percentage of release efficiency (%) Heart tissue ([6]; Table 10): 5.5% |

Reference: US20250235545A1, “POLYPEPTIDE CONJUGATE AND USE THEREOF” (SHANGHAI CHIXI BIOMEDICAL TECHNOLOGY CO., LTD, priority 2024, published 2025)
